System: MALME-3M multicell spheroids, viability
Assay: Anticancer human tumor MALME-3M cell line growth inhibition [TAK];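 also: spheroids exposed to drugs for seven days before readout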;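 as to viability, T/C: 100% = DMSO vehicle control viability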
Settings: for IC50: curve of first compound; for viability, T/C: stronger effect = lower value
Text: Combinatorial screen of targeted agents with TAK-243 and ipatasertib in multi-cell type tumor spheroids
A high-throughput screen of multi-cell type tumor spheroids was designed to identify active combinations of targeted small molecules and TAK-243 or ipatasertib. Complex spheroids include a stromal component modeled by human endothelial cells (HUVEC) and fibroblasts modeled by human mesenchymal stem cells (MSCs). The concentration ranges selected for each drug and investigational agent were based upon clinically achievable concentrations if the clinical Cmax of the agent was known.
Compounds. The drugs and investigational agents: TAK-243 (785004), ipatasertib (767898), everolimus (733504), selumetinib (741078), bortezomib (756655), trametinib (758246), ixazomib (758254), vemurafenib (761431), dabrafenib (764134), sapanisertib (764658), alpelisib (765974), and copanlisib (816437), were obtained from the National Cancer Institute (NCI) Developmental Therapeutics Program Chemical Repository. The FDA-approved anticancer drug set is available from the NCI Developmental Therapeutics Program. […] The stock solutions were prepared in dimethyl sulfoxide (DMSO, Sigma-Aldrich, St. Louis, MO, cat. D2650) at 800-fold the tested concentration and stored at -70 degrees C prior to their use. All drugs and investigational agents were tested over a range starting from a high concentration at or near the clinical Cmax and decreasing in half-log increments. If the clinical Cmax for an agent had not been determined, the highest concentration tested was 10 microM.
NCI60 Cell Culture. NCI60 cell lines were obtained from the NCI Developmental Therapeutics Program Tumor Repository. For each lot of cells, the Repository performed Applied Biosystems AmpFLSTR Identifiler testing with PCR amplification to confirm consistency with the published Identifier STR profile for each cell line. Cells were kept in continuous culture for no more than 20 passages. The optimal seeding densities for each of the cell lines at each time point assessed were determined prior to performing the concentration response studies. Briefly, the NCI60 human tumor lines were grown as monolayers in RPMI 1640 medium supplemented with 10% FBS and 2 mmol/L L-glutamine.
An additional 2 lines were from the NCI60 cell line panel including melanomas, MALME-3M and SK-MEL-2. Pooled donor human umbilical vein endothelial cells (HUVEC, Lonza, cat. CC-2519) and human mesenchymal stem cells (hMSC, Lonza, cat. PT-2501) were purchased from Lonza (Walkersville, MD).
PDMR cell lines were grown in complete medium (DC medium): Dulbecco's modified Eagle's medium (DMEM)/F12 supplemented with 5% fetal bovine serum (FBS), 2 mM L-glutamine, 100 U/mL penicillin and 100 µg/ml streptomycin, 0.4 µg/ml hydrocortisone, 10 ng/ml epidermal growth factor (EGF) recombinant human protein, 24 µg/mL adenine, and 0.1 mg/mL primocin. During culture from frozen stock vials, PDMR cells were cultured in the same medium containing 10 µM Y-27632 (see Table 3). The PDCs were cultured in complete DMEM/F12 media without 10 microM Y-27632 dihydrochloride for at least two passages prior to the screen. The pooled donor HUVEC and hMSC were cultured in endothelial cell growth medium 2 (PromoCell, Heidelberg, Germany, cat. C-22011) and mesenchymal stem cell growth medium 2 (PromoCell, cat. C-28009), respectively. For all experiments, HUVEC and hMSC were used at passages </=5.
For the pre-screen, cell seeding densities were determined from a titration spanning the range from 5,000 to 313 cells per well. The mct-spheroids including 60% malignant cells, 25% HUVEC and 15% MSC dispensed as a mixture into U-bottom Ultra-Low Attachment 384-well plates (Corning, NY)
High-throughput Drug Combination Screening.
Prior to their inoculation into 384-well plates, malignant cells, HUVEC, and hMSC were removed from T flasks using TrypLE express (Thermo Fisher Scientific, cat. 12605036) and harvested by centrifugation for 5 min at 233 x g. […]

## CC(=O)Nc1cccc(-n2c(=O)n(C3CC3)c(=O)c3c(Nc4ccc(I)cc4F)n(C)c(=O)c(C)c32)c1 + CC(C)NCC(C(=O)N1CCN(c2ncnc3c2C(C)CC3O)CC1)c1ccc(Cl)cc1
Second compound 0.3 µM
  IC50: 0.422 nM
Second compound 0.949 µM
  IC50: 0.468 nM
Second compound 3 µM
  IC50: 0.251 nM
Second compound 9.49 µM
  IC50: 0.181 nM
Second compound 30 µM
  IC50: < 0.0949 nM
Second compound 0.3 µM, first compound 94.9 pM
  viability, T/C: 107%
Second compound 0.3 µM, first compound 0.0003 µM
  viability, T/C: 62.2%
Second compound 0.3 µM, first compound 0.000949 µM
  viability, T/C: 20.4%
Second compound 0.3 µM, first compound 0.003 µM
  viability, T/C: 14.8%
Second compound 0.3 µM, first compound 0.00949 µM
  viability, T/C: 10.7%
Second compound 0.3 µM, first compound 0.03 µM
  viability, T/C: 4.75%
Second compound 0.949 µM, first compound 94.9 pM
  viability, T/C: 99.9%
Second compound 0.949 µM, first compound 0.0003 µM
  viability, T/C: 68.3%
Second compound 0.949 µM, first compound 0.000949 µM
  viability, T/C: 20.4%
Second compound 0.949 µM, first compound 0.003 µM
  viability, T/C: 13.9%
Second compound 0.949 µM, first compound 0.00949 µM
  viability, T/C: 9.51%
Second compound 0.949 µM, first compound 0.03 µM
  viability, T/C: 5.18%
Second compound 3 µM, first compound 94.9 pM
  viability, T/C: 84.4%
Second compound 3 µM, first compound 0.0003 µM
  viability, T/C: 44.2%
Second compound 3 µM, first compound 0.000949 µM
  viability, T/C: 19.2%
Second compound 3 µM, first compound 0.003 µM
  viability, T/C: 11.1%
Second compound 3 µM, first compound 0.00949 µM
  viability, T/C: 7.71%
Second compound 3 µM, first compound 0.03 µM
  viability, T/C: 2.69%
Second compound 9.49 µM, first compound 94.9 pM
  viability, T/C: 70.4%
Second compound 9.49 µM, first compound 0.0003 µM
  viability, T/C: 33.8%
Second compound 9.49 µM, first compound 0.000949 µM
  viability, T/C: 15.5%
Second compound 9.49 µM, first compound 0.003 µM
  viability, T/C: 10.1%
Second compound 9.49 µM, first compound 0.00949 µM
  viability, T/C: 4.94%
Second compound 9.49 µM, first compound 0.03 µM
  viability, T/C: 1.67%
Second compound 30 µM, first compound 94.9 pM
  viability, T/C: 44.2%
Second compound 30 µM, first compound 0.0003 µM
  viability, T/C: 25%
Second compound 30 µM, first compound 0.000949 µM
  viability, T/C: 10.5%
Second compound 30 µM, first compound 0.003 µM
  viability, T/C: 4.22%
Second compound 30 µM, first compound 0.00949 µM
  viability, T/C: 2.32%
Second compound 30 µM, first compound 0.03 µM
  viability, T/C: 0.3%

## CC(C)CC(NC(=O)CNC(=O)c1cc(Cl)ccc1Cl)B1OC(=O)CC(CC(=O)O)(C(=O)O)O1 (stereo not given) + CC(C)NCC(C(=O)N1CCN(c2ncnc3c2C(C)CC3O)CC1)c1ccc(Cl)cc1
Second compound 0.3 µM
  IC50: 16.8 nM
Second compound 0.949 µM
  IC50: 17.5 nM
Second compound 3 µM
  IC50: 9.34 nM
Second compound 9.49 µM
  IC50: 11.8 nM
Second compound 30 µM
  IC50: < 0.316 nM
Second compound 0.3 µM, first compound 0.000316 µM
  viability, T/C: 109%
Second compound 0.3 µM, first compound 0.001 µM
  viability, T/C: 97.2%
Second compound 0.3 µM, first compound 0.00316 µM
  viability, T/C: 90.6%
Second compound 0.3 µM, first compound 0.01 µM
  viability, T/C: 82.6%
Second compound 0.3 µM, first compound 0.0316 µM
  viability, T/C: 10.4%
Second compound 0.3 µM, first compound 0.1 µM
  viability, T/C: 0.25%
Second compound 0.949 µM, first compound 0.000316 µM
  viability, T/C: 92.4%
Second compound 0.949 µM, first compound 0.001 µM
  viability, T/C: 89%
Second compound 0.949 µM, first compound 0.00316 µM
  viability, T/C: 95.4%
Second compound 0.949 µM, first compound 0.01 µM
  viability, T/C: 87.2%
Second compound 0.949 µM, first compound 0.0316 µM
  viability, T/C: 10.7%
Second compound 0.949 µM, first compound 0.1 µM
  viability, T/C: 0.17%
Second compound 3 µM, first compound 0.000316 µM
  viability, T/C: 90.5%
Second compound 3 µM, first compound 0.001 µM
  viability, T/C: 77%
Second compound 3 µM, first compound 0.00316 µM
  viability, T/C: 77.5%
Second compound 3 µM, first compound 0.01 µM
  viability, T/C: 49.1%
Second compound 3 µM, first compound 0.0316 µM
  viability, T/C: 6.98%
Second compound 3 µM, first compound 0.1 µM
  viability, T/C: 0.17%
Second compound 9.49 µM, first compound 0.000316 µM
  viability, T/C: 70.9%
Second compound 9.49 µM, first compound 0.001 µM
  viability, T/C: 68%
Second compound 9.49 µM, first compound 0.00316 µM
  viability, T/C: 64.8%
Second compound 9.49 µM, first compound 0.01 µM
  viability, T/C: 57.6%
Second compound 9.49 µM, first compound 0.0316 µM
  viability, T/C: 5.18%
Second compound 9.49 µM, first compound 0.1 µM
  viability, T/C: 0.17%
Second compound 30 µM, first compound 0.000316 µM
  viability, T/C: 48.2%
Second compound 30 µM, first compound 0.001 µM
  viability, T/C: 49.8%
Second compound 30 µM, first compound 0.00316 µM
  viability, T/C: 45.2%
Second compound 30 µM, first compound 0.01 µM
  viability, T/C: 30.9%
Second compound 30 µM, first compound 0.0316 µM
  viability, T/C: 4.73%
Second compound 30 µM, first compound 0.1 µM
  viability, T/C: 0.24%
